Experimental data taken from publication PMC4109017 (Nature Communications, 2014).

Columns and labels:
FALDH (K463X) = FALDH (K463X) (Homo sapiens, UniProt P51648); experiment: fluorometric NADH formation, Michaelis-Menten fit; format: biochemical; conditions: 1 mM NAD, 25 mM sodium pyrophosphate pH 8.0, 0.1% Triton X-100, 37 °C
[1] = molecular target: FALDH Q445X (without gatekeeper helix) (Homo sapiens, UniProt P51648); experiment: fluorometric NADH formation, Michaelis-Menten fit; format: biochemical; conditions: 1 mM NAD, 25 mM sodium pyrophosphate pH 8.0, 0.1% Triton X-100, 37 °C
Sequence of FALDH Q445X (without gatekeeper helix) (P51648 1-444): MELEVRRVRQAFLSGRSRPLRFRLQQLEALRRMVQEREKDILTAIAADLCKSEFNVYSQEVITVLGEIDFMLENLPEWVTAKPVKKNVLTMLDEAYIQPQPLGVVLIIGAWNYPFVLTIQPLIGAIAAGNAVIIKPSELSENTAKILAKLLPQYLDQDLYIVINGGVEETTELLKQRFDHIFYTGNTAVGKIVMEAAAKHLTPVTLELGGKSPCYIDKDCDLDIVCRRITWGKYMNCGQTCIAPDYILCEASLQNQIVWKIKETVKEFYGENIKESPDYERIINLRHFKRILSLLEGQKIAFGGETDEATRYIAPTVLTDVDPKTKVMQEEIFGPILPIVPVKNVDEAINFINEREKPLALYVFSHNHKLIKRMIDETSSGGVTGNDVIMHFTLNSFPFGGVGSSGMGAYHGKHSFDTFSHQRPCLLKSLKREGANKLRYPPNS

Sequence of FALDH (K463X) (P51648 1-462): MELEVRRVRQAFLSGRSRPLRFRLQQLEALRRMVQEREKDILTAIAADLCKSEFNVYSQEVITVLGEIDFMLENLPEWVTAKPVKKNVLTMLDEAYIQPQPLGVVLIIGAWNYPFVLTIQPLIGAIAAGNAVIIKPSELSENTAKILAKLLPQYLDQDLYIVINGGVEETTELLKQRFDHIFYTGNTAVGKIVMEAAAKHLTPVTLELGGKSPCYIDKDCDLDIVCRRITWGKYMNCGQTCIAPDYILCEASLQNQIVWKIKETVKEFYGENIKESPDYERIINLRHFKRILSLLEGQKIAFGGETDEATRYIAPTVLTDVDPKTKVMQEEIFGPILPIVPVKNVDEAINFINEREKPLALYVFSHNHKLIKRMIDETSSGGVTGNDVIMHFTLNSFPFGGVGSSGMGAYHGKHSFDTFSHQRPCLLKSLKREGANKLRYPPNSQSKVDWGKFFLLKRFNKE

SMILES | Vmax/KM (FALDH (K463X)) | Vmax/KM [1]
CCCCCCCCCCCCCCCC=O [hexadecanal] | metabolize octanal, dodecanal and hexadecanal | 
CCCCCCCCCCCC=O [dodecanal] | metabolize octanal, dodecanal and hexadecanal | longer fatty aldehydes docecanal (C12) and hexadecanal (C16) were used as substrates
